Test results published in US11046699B2, “Pyrazolo-pyrimidin-amino-cycloalkyl compounds and their therapeutic uses” (RAPT THERAPEUTICS, INC., priority 2018, dated 2021).
Where two headings read alike, the source gives them in different places.

Biological target: GCN2 (Homo sapiens, UniProt Q9P2K8)
Assay: GCN2 enzymatic endpoint assay: phosphorylation of GFP-eIF2α measured by TR-FRET (Lanthascreen)
Type: biochemical
Summary of the method: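 Phosphorylated eIF2α read by Lanthascreen TR-FRET (acceptor 520 nm over donor 495 nm) after EDTA stop. The reaction ran 90 min at room temperature on 80 nM GFP-eIF2α with 2 μM ATP.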

[1] = GCN2 biochemical IC50, 4 nM GCN2, 2 μM ATP, 80 nM GFP-eIF2α, 90 min RT, read-out: GCN2 activity
[2] = tested as described in Example 77, compound and/or hydrochloride, dihydrochloride or trifluoroacetic acid salt, read-out: IC 50 Activity

GCN2, sequence (Q9P2K8 whole entry): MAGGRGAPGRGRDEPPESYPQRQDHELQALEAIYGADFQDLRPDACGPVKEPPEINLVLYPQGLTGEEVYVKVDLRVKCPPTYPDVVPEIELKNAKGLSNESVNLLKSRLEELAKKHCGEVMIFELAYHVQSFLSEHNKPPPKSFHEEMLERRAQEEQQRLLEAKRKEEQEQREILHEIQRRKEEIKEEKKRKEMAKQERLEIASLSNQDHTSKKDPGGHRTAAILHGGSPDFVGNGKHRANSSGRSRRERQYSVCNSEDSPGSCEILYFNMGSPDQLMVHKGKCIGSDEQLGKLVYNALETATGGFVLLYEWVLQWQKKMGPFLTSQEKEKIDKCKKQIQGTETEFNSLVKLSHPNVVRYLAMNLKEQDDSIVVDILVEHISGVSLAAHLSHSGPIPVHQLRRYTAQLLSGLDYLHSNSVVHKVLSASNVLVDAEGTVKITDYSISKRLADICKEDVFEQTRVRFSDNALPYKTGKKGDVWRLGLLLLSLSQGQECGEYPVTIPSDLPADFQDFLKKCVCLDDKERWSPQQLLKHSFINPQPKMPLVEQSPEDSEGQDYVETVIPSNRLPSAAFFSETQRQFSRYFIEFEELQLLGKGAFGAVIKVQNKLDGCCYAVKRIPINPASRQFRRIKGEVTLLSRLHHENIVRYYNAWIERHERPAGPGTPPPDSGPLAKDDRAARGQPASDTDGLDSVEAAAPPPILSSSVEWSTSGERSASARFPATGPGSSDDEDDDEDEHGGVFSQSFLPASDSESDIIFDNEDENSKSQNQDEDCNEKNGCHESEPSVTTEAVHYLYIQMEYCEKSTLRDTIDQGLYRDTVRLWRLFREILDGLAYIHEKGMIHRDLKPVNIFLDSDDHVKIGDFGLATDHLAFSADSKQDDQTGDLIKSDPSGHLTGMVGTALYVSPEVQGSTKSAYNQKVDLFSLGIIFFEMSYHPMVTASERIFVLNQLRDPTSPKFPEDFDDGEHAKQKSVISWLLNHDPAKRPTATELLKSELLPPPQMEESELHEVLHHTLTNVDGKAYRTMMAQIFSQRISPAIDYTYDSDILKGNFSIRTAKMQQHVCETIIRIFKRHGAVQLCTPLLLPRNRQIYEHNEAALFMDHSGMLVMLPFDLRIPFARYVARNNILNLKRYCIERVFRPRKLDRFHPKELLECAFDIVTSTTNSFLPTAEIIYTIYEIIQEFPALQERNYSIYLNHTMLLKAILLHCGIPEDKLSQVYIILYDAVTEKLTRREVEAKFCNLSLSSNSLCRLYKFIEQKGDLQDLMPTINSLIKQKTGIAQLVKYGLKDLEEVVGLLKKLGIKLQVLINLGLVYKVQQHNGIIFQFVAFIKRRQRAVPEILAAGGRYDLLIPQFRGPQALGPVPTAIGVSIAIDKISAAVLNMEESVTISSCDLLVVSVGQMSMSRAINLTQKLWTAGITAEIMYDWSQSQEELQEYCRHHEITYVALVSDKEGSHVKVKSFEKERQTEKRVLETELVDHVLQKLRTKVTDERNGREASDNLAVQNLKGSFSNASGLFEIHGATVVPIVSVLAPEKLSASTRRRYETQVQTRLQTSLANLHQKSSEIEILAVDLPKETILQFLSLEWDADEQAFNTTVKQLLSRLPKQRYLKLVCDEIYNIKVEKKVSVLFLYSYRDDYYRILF

IC50 [1]	IC50 [2]	Compound
0.025 to 0.2 µM	–	CNC(=O)[C@]1(C)CC[C@@H](Nc2ncc3c(Br)nn(-c4cc(Cl)cc(CN)c4)c3n2)C1 [Example 52, (1R,3R)-3-((1-(3-(aminomethyl)-5-chlorophenyl)-3-bromo-1H-pyrazolo[3,4-d]pyrimidin-6-yl)amino)-N,1-dimethylcyclopentane-1-carboxamide; 2,2,2-trifluoroacetic acid]
–	0.025 to 0.2 µM	CNC(=O)[C@]1(C)CC[C@@H](Nc2ncc3c(Br)nn(-c4cc(N5CCNCC5=O)c5ncccc5c4)c3n2)C1 [(1R,3R)-3-[[3-bromo-1-[8-(2-oxopiperazin-1-yl)-6-quinolyl]pyrazolo[3,4-d]pyrimidin-6-yl]amino]-N,1-dimethyl-cyclopentane-carboxamide]
–	0.025 to 0.2 µM	CNC(=O)[C@]1(C)CC[C@@H](Nc2ncc3c(Br)nn(-c4ccc(-c5ncc(C)[nH]5)cc4)c3n2)C1 [(1R,3R)-3-[[3-bromo-1-[4-(5-methyl-1H-imidazol-2-yl)phenyl]pyrazolo[3,4-d]pyrimidin-6-yl]amino]-N,1-dimethyl-cyclopentanecarboxamide]
–	0.025 to 0.2 µM	O=C([C@@H]1CC[C@@H](Nc2ncc3c(Br)nn(-c4ccc5ncccc5c4)c3n2)C1)N1C2CCC1COC2 [(3-oxa-8-azabicyclo[3.2.1]octan-8-yl)((1R,3R)-3-((3-bromo-1-(quinolin-6-yl)-1H-pyrazolo [3,4-d]pyrimidin-6-yl)amino)cyclopentyl) methanone]
–	0.025 to 0.2 µM	CNC(=O)[C@]1(C)CC[C@@H](Nc2ncc3c(Br)nn(-c4cccc(NC5COC5)c4)c3n2)C1 [(1R,3R)-3-[[3-bromo-1-[3-(oxetan-3-ylamino)phenyl]pyrazolo[3,4-d]pyrimidin-6-yl]amino]-N,1-dimethyl-cyclopentanecarboxamide]
< 0.025 µM	–	CNS(=O)(=O)[C@@H]1CC[C@@H](Nc2ncc3c(Br)nn(-c4ccc(-c5nnc(C)s5)cc4)c3n2)C1 [Example 68, (1R,3R)-3-((3-bromo-1-(4-(5-methyl-1,3,4-thiadiazol-2-yl)phenyl)-1H-pyrazolo[3,4-d]pyrimidin-6-yl)amino)-N-methylcyclopentane-1-sulfonamide]
–	0.025 to 0.2 µM	CNC(=O)[C@]1(C)CC[C@@H](Nc2ncc3c(Br)nn(-c4ccc(-c5ccn(C)n5)cc4)c3n2)C1 [(1R,3R)-3-[[3-bromo-1-[4-(1-methyl-pyrazol-3-yl)phenyl]pyrazolo[3,4-d]pyrimidin-6-yl]amino]-N,1-dimethyl-cyclopentanecarboxamide]
–	0.025 to 0.2 µM	CNC(=O)[C@]1(C)CC[C@@H](Nc2ncc3c(Br)nn(-c4cc(CCNC(=O)C(C)C)c5ncccc5c4)c3n2)C1 [(1R,3R)-3-[[3-bromo-1-[8-[2-(2-methyl-propanoylamino)ethyl]-6-quinolyl]pyrazolo [3,4-d]pyrimidin-6-yl]amino]-N,1-dimethyl-cyclopentanecarboxamide]
–	0.025 to 0.2 µM	CNC(=O)[C@]1(C)CC[C@@H](Nc2ncc3c(Br)nn(-c4cc(Cl)cc(CS(C)(=O)=O)c4)c3n2)C1 [(1R,3R)-3-[[3-bromo-1-[3-chloro-5-(methylsulfonylmethyl)phenyl]pyrazolo [3,4-d]pyrimidin-6-yl]amino]-N,1-dimethyl-cyclopentanecarboxamide]
–	0.025 to 0.2 µM	CNC(=O)[C@]1(C)CC[C@@H](Nc2ncc3c(Br)nn(-c4cc(CC(C)(C)O)c5ncccc5c4)c3n2)C1 [(1R,3R)-3-[[3-bromo-1-[8-(2-hydroxy-2-methyl-propyl)-6-quinolyl]pyrazolo[3,4-d]pyrimidin-6-yl]amino]-N,1-dimethyl-cyclopentanecarboxamide]
–	0.025 to 0.2 µM	CNC(=O)[C@]1(C)CC[C@@H](Nc2ncc3c(Br)nn(-c4ccc(-c5nnc(C)s5)c(CCN)c4)c3n2)C1 [(1R,3R)-3-[[1-[3-(2-aminoethyl)-4-(5-methyl-1,3,4-thiadiazol-2-yl)phenyl]-3-bromo-pyrazolo[3,4-d]pyrimidin-6-yl]amino]-N,1-dimethyl-cyclopentane-carboxamide]
–	0.025 to 0.2 µM	C[C@]1(C(=O)O)CC[C@@H](Nc2ncc3c(Br)nn(-c4cc(CCN)c5ncccc5c4)c3n2)C1 [(1S,3R)-3-[[1-[8-(2-aminoethyl)-6-quinolyl]-3-bromo-pyrazolo[3,4-d]pyrimidin-6-yl]amino]-1-methyl-cyclopentanecarboxylic acid]
–	0.025 to 0.2 µM	CNC(=O)[C@H]1C[C@H](Nc2ncc3c(Br)nn(-c4ccc(-c5nnc(C)s5)cc4)c3n2)CO1 [(2R,4S)-4-[[3-bromo-1-[4-(5-methyl-1,3,4-thiadiazol-2-yl)phenyl]pyrazolo [3,4-d]pyrimidin-6-yl]amino]-N-methyl-tetrahydrofuran-2-carboxamide]
–	0.025 to 0.2 µM	CNC(=O)[C@@H]1CC[C@@H](Nc2ncc3c(Br)nn(-c4ccc5ncccc5c4)c3n2)C1 [(1R,3R)-3-[[3-bromo-1-(6-quinolyl)pyrazolo[3,4-d]pyrimidin-6-yl]amino]-N-methyl-cyclopentanecarboxamide]
–	0.025 to 0.2 µM	CNC(=O)[C@]1(C)CC[C@@H](Nc2ncc3c(Br)nn(-c4cc(C(C)O)c5nccnc5c4)c3n2)C1 (stereo partly drawn) [(1R,3R)-3-[[3-bromo-1-[8-(1-hydroxy-ethyl)quinoxalin-6-yl]pyrazolo[3,4-d]pyrimidin-6-yl]amino]-N,1-dimethyl-cyclopentanecarboxamide]
–	0.025 to 0.2 µM	CNC(=O)[C@]1(C)CC[C@@H](Nc2ncc3c(Br)nn(-c4cc(CNS(C)(=O)=O)c5nccnc5c4)c3n2)C1 [(1R,3R)-3-[[3-bromo-1-[8-(methane-sulfonamidomethyl)quinoxalin-6-yl]pyrazolo[3,4-d]pyrimidin-6-yl]amino]-N,1-dimethyl-cyclopentanecarboxamide]
–	0.025 to 0.2 µM	NC(=O)C1(NC(=O)[C@@H]2CC[C@@H](Nc3ncc4c(Br)nn(-c5cc(F)c6ncccc6c5)c4n3)C2)CC1 [(1R,3R)-3-[[3-bromo-1-(8-fluoro-6-quinolyl)pyrazolo[3,4-d]pyrimidin-6-yl]amino]-N-(1-carbamoylcyclopropyl)cyclopentane-carboxamide]
–	0.025 to 0.2 µM	CCS(=O)(=O)N1Cc2cc(-n3nc(Br)c4cnc(N[C@@H]5CC[C@@](C)(C(=O)NC)C5)nc43)cnc2C1 [(1R,3R)-3-[[3-bromo-1-(6-ethylsulfonyl-5,7-dihydropyrrolo[3,4-b]pyridin-3-yl)pyrazolo[3,4-d]pyrimidin-6-yl]amino]-N,1-dimethyl-cyclopentanecarboxamide]
–	0.025 to 0.2 µM	CNC(=O)[C@]1(C)CC[C@@H](Nc2ncc3c(Br)nn(-c4cc(OCC5(F)CNC5)cc(OC(F)(F)F)c4)c3n2)C1 [(1R,3R)-3-[[3-bromo-1-[3-[(3-fluoroazetidin-3-yl)methoxy]-5-(trifluoromethoxy)phenyl]pyrazolo[3,4-d]pyrimidin-6-yl]amino]-N,1-dimethyl-cyclopentanecarboxamide]

The remaining lines, values behind:

Compound	IC50 [1]	IC50 [2]
O[C@@H]1CCC[C@@H]1Nc1ncc2c(Br)nn(-c3cc(F)c4ncccc4c3)c2n1 [(1R,2S)-2-[[3-bromo-1-(8-fluoro-6-quinolyl)pyrazolo[3,4-d]pyrimidin-6-yl]amino]cyclopentanol]	–	0.025 to 0.2 µM
O=C(NC[C@H]1COCCN1)[C@@H]1CC[C@@H](Nc2ncc3c(Br)nn(-c4ccc5ncccc5c4)c3n2)C1 [(1R,3R)-3-((3-bromo-1-(quinolin-6-yl)-1H-pyrazolo[3,4-d]pyrimidin-6-yl)amino)-N-(((S)-morpholin-3-yl)methyl)cyclopentane-1-carboxamide]	–	0.025 to 0.2 µM
CNC(=O)[C@]1(C)CC[C@@H](Nc2ncc3c(Br)nn(-c4cc(CCC(=O)O)c5ncccc5c4)c3n2)C1 [3-[6-[3-bromo-6-[[(1R,3R)-3-methyl-3-(methylcarbamoyl)cyclopentyl]amino]pyrazolo[3,4-d]pyrimidin-1-yl]-8-quinolyl]propanoic acid]	–	< 0.025 µM
Cc1nnc(-c2ccc(-n3nc(Br)c4cnc(NC5CCN(CC(F)F)C5)nc43)cc2)s1 (centres unmarked) [3-bromo-N-[1-(2,2-difluoroethyl)pyrrolidin-3-yl]-1-[4-(5-methyl-1,3,4-thiadiazol-2-yl)phenyl] pyrazolo[3,4-d]pyrimidin-6-amine]	–	0.025 to 0.2 µM
CNC(=O)[C@]1(C(C)C)CC[C@@H](Nc2ncc3c(Br)nn(-c4cc([C@@H](C)N)c5nccnc5c4)c3n2)C1	–	< 0.025 µM
CS(=O)(=O)CCNC(=O)[C@@H]1CC[C@@H](Nc2ncc3c(Br)nn(-c4cc(F)c5ncccc5c4)c3n2)C1 [(1R,3R)-3-((3-bromo-1-(8-fluoroquinolin-6-yl)-1H-pyrazolo[3,4-d]pyrimidin-6-yl)amino)-N-(2-(methylsulfonyl)ethyl)cyclo-pentane-1-carboxamide]	–	0.2 to 0.5 µM
CNC(=O)[C@]1(C)CC[C@@H](Nc2ncc3c(Br)nn(-c4cc(Br)cc(C(C)O)c4)c3n2)C1 (some centres unmarked)	–	0.025 to 0.2 µM
COC(=O)N1CC[C@@H](Nc2ncc3c(Br)nn(-c4ccc(-c5nnc(C)s5)cc4)c3n2)C1	–	0.025 to 0.2 µM
COCCNC(=O)[C@@H]1CC[C@@H](Nc2ncc3c(Br)nn(-c4ccc5cnn(C)c5c4)c3n2)C1 [(1R,3R)-3-((3-bromo-1-(1-methyl-1H-indazol-6-yl)-1H-pyrazolo[3,4-d]pyrimidin-6-yl)amino)-N-(2-methoxyethyl)cyclopentane-1-carboxamide]	–	0.2 to 0.5 µM
CNC(=O)[C@]1(C)CC[C@@H](Nc2ncc3c(Br)nn(-c4cc(N5CCNCC5)c5ncccc5c4)c3n2)C1	–	0.025 to 0.2 µM
CC(C)(CN1CCCC1)NC(=O)[C@@H]1CC[C@@H](Nc2ncc3c(Br)nn(-c4ccc5ncccc5c4)c3n2)C1	–	0.025 to 0.2 µM
O=C(CO)N1CCN(C(=O)[C@@H]2CC[C@@H](Nc3ncc4c(Br)nn(-c5ccc6ncccc6c5)c4n3)C2)CC1 [1-(4-((1R,3R)-3-((3-bromo-1-(quinolin-6-yl)-1H-pyrazolo[3,4-d]pyrimidin-6-yl)amino)cyclopentane-1-carbonyl)piperazin-1-yl)-2-hydroxyethan-1-one]	–	0.025 to 0.2 µM
CC(C)NC(=O)[C@@H]1CC[C@@H](Nc2ncc3c(Br)nn(-c4cc(C#N)c5ncccc5c4)c3n2)C1 [(1R,3R)-3-((3-bromo-1-(8-cyanoquinolin-6-yl)-1H-pyrazolo[3,4-d]pyrimidin-6-yl)amino)-N-isopropylcyclopentane-1-carboxamide]	–	0.025 to 0.2 µM
